In one assay the target is Cholinesterase (Homo sapiens, UniProt P06276). The assay can be described thus: Inhibition of human butyrylcholinesterase.
For the next assay, the target named is Acetylcholinesterase (Homo sapiens, UniProt P22303). The assay is described as follows: Inhibition of human acetylcholinesterase 1.
For a further assay, the target named is T1, Liver carboxylesterase 1 (Homo sapiens, UniProt P23141).
T1 sequence (P23141 whole entry): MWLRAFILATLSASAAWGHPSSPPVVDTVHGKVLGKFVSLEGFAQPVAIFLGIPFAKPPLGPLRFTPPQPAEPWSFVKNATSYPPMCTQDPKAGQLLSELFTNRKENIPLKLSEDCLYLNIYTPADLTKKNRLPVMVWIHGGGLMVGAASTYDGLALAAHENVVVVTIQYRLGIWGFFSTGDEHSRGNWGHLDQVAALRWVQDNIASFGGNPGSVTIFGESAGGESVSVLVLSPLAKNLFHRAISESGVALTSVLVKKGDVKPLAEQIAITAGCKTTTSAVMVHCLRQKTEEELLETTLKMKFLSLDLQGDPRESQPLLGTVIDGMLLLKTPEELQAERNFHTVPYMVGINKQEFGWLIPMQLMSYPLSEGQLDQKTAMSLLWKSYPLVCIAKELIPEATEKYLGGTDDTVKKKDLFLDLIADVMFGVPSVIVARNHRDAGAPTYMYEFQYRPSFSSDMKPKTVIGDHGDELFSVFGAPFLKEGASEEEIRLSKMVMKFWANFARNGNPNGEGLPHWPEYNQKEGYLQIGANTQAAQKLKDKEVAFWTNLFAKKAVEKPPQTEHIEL
The assay can be described thus: Inhibition of human carboxylesterase 1.

The nature of assay [1]: Inhibition of human intestinal carboxylesterase.

19 compounds from ChEMBL document CHEMBL1138234, “Planarity and constraint of the carbonyl groups in 1,2-diones are determinants for selective inhibition of human carboxylesterase 1” (J Med Chem, 2007) can be followed below.

Molecules are shown by their SMILES. A value given as a limit tells only on which side of the number the result lay.

Sequence of Acetylcholinesterase (P22303 whole entry): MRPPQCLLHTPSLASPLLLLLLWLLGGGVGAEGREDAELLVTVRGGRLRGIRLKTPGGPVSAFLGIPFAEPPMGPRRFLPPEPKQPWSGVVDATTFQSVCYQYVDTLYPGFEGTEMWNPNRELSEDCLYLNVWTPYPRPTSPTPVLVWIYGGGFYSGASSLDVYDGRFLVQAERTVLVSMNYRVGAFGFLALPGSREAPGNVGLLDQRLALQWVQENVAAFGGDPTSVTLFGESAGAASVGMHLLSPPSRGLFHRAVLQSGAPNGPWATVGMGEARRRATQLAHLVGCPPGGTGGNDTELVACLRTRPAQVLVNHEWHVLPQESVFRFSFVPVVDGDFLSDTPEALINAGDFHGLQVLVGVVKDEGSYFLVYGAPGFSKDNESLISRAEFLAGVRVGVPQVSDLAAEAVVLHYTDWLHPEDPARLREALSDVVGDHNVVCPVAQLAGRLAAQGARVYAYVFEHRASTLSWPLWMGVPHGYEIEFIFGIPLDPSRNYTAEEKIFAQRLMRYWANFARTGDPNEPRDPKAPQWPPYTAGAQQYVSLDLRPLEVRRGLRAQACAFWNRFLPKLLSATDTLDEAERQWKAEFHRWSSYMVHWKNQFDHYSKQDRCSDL
Sequence of Cholinesterase (P06276 whole entry): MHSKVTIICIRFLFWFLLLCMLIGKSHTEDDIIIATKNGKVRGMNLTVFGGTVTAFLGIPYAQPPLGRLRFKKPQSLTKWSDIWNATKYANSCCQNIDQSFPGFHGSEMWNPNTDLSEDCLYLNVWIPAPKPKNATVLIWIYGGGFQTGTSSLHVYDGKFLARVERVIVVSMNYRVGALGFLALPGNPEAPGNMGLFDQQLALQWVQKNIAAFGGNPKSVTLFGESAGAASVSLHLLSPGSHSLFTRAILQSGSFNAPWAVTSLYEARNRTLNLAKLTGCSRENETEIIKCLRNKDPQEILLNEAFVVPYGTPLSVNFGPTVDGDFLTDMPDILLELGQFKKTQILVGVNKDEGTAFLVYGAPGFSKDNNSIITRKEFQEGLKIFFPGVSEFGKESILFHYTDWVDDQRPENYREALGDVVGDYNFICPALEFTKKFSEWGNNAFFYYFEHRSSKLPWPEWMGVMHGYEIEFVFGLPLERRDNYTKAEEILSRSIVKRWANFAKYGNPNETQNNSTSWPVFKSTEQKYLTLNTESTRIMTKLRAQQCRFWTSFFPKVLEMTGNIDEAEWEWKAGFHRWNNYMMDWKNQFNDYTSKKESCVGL

In the case of `O=C1C(=O)c2cccc3c2N(CCC3)C1=O`, the Ki on Cholinesterase is greater than 100 µM; at Acetylcholinesterase, greater than 100 µM; on Liver carboxylesterase 1, 5.38 µM; in assay [1], greater than 100 µM.
Consider `COc1ccccc1C(=O)C(=O)c1ccccc1OC`, for which the Ki (at Cholinesterase; on Liver carboxylesterase 1; in assay [1]) was greater than 100 µM in each case.
Take `O=C1C(=O)c2sccc2-c2ccsc21`: the Ki on Cholinesterase was greater than 100 µM; at Acetylcholinesterase, greater than 100 µM; on Liver carboxylesterase 1 it was 0.15 µM; in assay [1] it was 0.85 µM.
Take `O=C1C=Cc2ccccc2C1=O` [1,2-NAPHTHOQUINONE]: the Ki was 2.29 µM on Cholinesterase, 0.32 µM at Acetylcholinesterase, 0.93 µM at Liver carboxylesterase 1 and 2.4 µM in assay [1].
For `O=C(C(=O)C1CCCCC1)C1CCCCC1` the same measures were greater than 100 µM, greater than 100 µM, 0.072 µM and 0.005 µM.
As to `O=C1C(=O)N2CCCc3cccc1c32`, the Ki at Cholinesterase was greater than 100 µM; at Acetylcholinesterase, greater than 100 µM; on Liver carboxylesterase 1, 1.54 µM; in assay [1], 4.13 µM.
For `Cc1cc(C)c(C(=O)C(=O)c2c(C)cc(C)cc2C)c(C)c1`, the Ki on Cholinesterase is greater than 100 µM; on Acetylcholinesterase, greater than 100 µM; at Liver carboxylesterase 1, greater than 100 µM; in assay [1] it was 4.04 µM.
`O=C1C(=O)c2c3ccccc3cc3cccc1c23`: the Ki was greater than 100 µM on Cholinesterase, greater than 100 µM at Acetylcholinesterase, 0.0015 µM at Liver carboxylesterase 1 and 0.0077 µM in assay [1].
For `CC1(C)[C@@H]2CC[C@]1(C)C(=O)C2=O` (racemic), the Ki (at Cholinesterase; at Acetylcholinesterase; on Liver carboxylesterase 1; in assay [1]) was greater than 100 µM in each case.
On to `O=C1C(=O)c2cc([N+](=O)[O-])ccc2-c2ccccc21`, for which the Ki is 1.67 µM on Cholinesterase, 0.85 µM on Acetylcholinesterase, 0.0159 µM at Liver carboxylesterase 1 and 0.107 µM in assay [1].
For `O=C1C(=O)c2ccccc2CCc2ccccc21` the same measures were greater than 100 µM, greater than 100 µM, 2.98 µM and 6.15 µM.
On to `O=C1C(=O)c2cccnc2-c2ncccc21`, for which the Ki was greater than 100 µM on Cholinesterase, greater than 100 µM at Acetylcholinesterase, 5.4 µM on Liver carboxylesterase 1 and greater than 100 µM in assay [1].
Regarding `O=C1C(=O)c2cccc3cccc1c23` [ACENAPHTHOQUINONE], the Ki on Cholinesterase was 2.97 µM; at Acetylcholinesterase, greater than 100 µM; on Liver carboxylesterase 1 it was 0.031 µM.
For `O=C1C(=O)c2ccc([N+](=O)[O-])c3c([N+](=O)[O-])ccc1c23`, the Ki at Cholinesterase came out at 3.1 µM; at Acetylcholinesterase, 0.903 µM; on Liver carboxylesterase 1, 0.57 µM; in assay [1] it was 0.62 µM.
As for `COc1ccc(C(=O)C(=O)c2ccc(C(=O)O)cc2)cc1`, the Ki at Cholinesterase and at Acetylcholinesterase was greater than 100 µM each time.
Turning to `O=C1Cc2ccccc2C1=O`, the Ki was 2.63 µM on Cholinesterase, greater than 100 µM on Acetylcholinesterase, 5.24 µM on Liver carboxylesterase 1 and 5.47 µM in assay [1].
On the same counts, the results for `O=C(C(=O)c1ccc([N+](=O)[O-])cc1)c1ccc([N+](=O)[O-])cc1` are greater than 100 µM, greater than 100 µM, 9.8 µM and 0.47 µM.
For the compound `CCOc1ccc(C(=O)C(=O)c2ccc(OCC)cc2)cc1`, the Ki is greater than 100 µM on Cholinesterase, greater than 100 µM on Acetylcholinesterase, greater than 100 µM on Liver carboxylesterase 1 and 1.42 µM in assay [1].
As for `O=C1C(=O)c2ccccc2-c2ccccc21` [9,10-PHENANTHRENEQUINONE], the Ki at Cholinesterase was 0.19 µM; on Acetylcholinesterase, greater than 100 µM; on Liver carboxylesterase 1, 0.0025 µM.
